{"source": "patent US10294202B2", "about": "“Pyrrolidinones as herbicides” (FMC Corporation, priority 2013, dated 2019)", "key": {"pigweed": {"test_system": "pigweed", "assay": "Test A pre-/postemergence herbicide test", "type": "in vivo, Amaranthus retroflexus", "how_it_was_run": "(§1)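 Seeds in loam–sand blend received preemergence directed soil spray; separately, plants 2–10 cm at one- to two-leaf stage received postemergence spray, both with test chemicals in non-phytotoxic solvent with surfactant. After ~10 days in greenhouse, injury rated visually against untreated controls, 0 (no effect) to 100 (complete control).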"}, "barnyardgrass [1]": {"test_system": "barnyardgrass", "assay": "Test B flooded paddy test", "type": "in vivo, Echinochloa crus-galli", "conditions": "Flood, scale of 0 to 100 where 0 is no effect and 100 is complete control", "how_it_was_run": "(§2)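 Scored visually 0–100 (0 no effect, 100 complete control) versus controls after 13 to 15 greenhouse days. Treatment: compound added to paddy water kept 3 cm above soil, on 2-leaf-stage plants.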"}, "ragweed": {"test_system": "ragweed", "assay": "Test A pre-/postemergence herbicide test", "type": "in vivo, Ambrosia elatior", "how_it_was_run": "as §1"}, "corn": {"test_system": "corn", "assay": "Test A pre-/postemergence herbicide test", "type": "in vivo, Zea mays", "conditions": "Postemergence", "how_it_was_run": "as §1"}, "sedge, umbrella": {"test_system": "sedge, umbrella", "assay": "Test B flooded paddy test", "type": "in vivo, Cyperus difformis", "conditions": "Flood, scale of 0 to 100 where 0 is no effect and 100 is complete control", "how_it_was_run": "as §2"}, "galium": {"test_system": "galium", "assay": "Test A postemergence herbicide test", "type": "in vivo, Galium aparine", "how_it_was_run": "(§3)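 Potted in loam soil/sand blend; postemergence application at 1–2 leaf stage (2–10 cm). Greenhouse ~10 d. Visual injury vs untreated, 0–100 scale; 100 = complete control.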"}, "ryegrass, Italian": {"test_system": "ryegrass, Italian", "assay": "Test A pre-/postemergence herbicide test", "type": "in vivo, Lolium multiflorum", "how_it_was_run": "as §1"}, "wheat": {"test_system": "wheat", "assay": "Test A pre-/postemergence herbicide test", "type": "in vivo, Triticum aestivum", "conditions": "Postemergence", "how_it_was_run": "as §1"}, "blackgrass": {"test_system": "blackgrass", "assay": "Test A postemergence herbicide test", "type": "in vivo, Alopecurus myosuroides", "how_it_was_run": "as §3"}, "ducksalad": {"test_system": "ducksalad", "assay": "Test B flooded paddy test", "type": "in vivo, Heteranthera limosa", "conditions": "Flood, scale of 0 to 100 where 0 is no effect and 100 is complete control", "how_it_was_run": "as §2"}, "barnyardgrass [2]": {"test_system": "barnyardgrass", "assay": "Test A pre-/postemergence herbicide test", "type": "in vivo, Echinochloa crus-galli", "how_it_was_run": "as §1"}, "kochia": {"test_system": "kochia", "assay": "Test A pre-/postemergence herbicide test", "type": "in vivo, Kochia scoparia", "how_it_was_run": "as §1"}, "rice": {"test_system": "rice", "assay": "Test B flooded paddy test", "type": "in vivo, Oryza sativa", "conditions": "Flood, scale of 0 to 100 where 0 is no effect and 100 is complete control", "how_it_was_run": "as §2"}, "giant foxtail": {"test_system": "giant foxtail", "assay": "Test A pre-/postemergence herbicide test", "type": "in vivo, Setaria faberii", "how_it_was_run": "as §1"}, "[3]": {"conditions": "125 g ai/ha, visual rating, 0 to 100 scale, 0 no effect, 100 complete control, approximately 10 days, preemergence"}, "[4]": {"conditions": "Postemergence, 125 g ai/ha, 0 to 100 scale, 0 is no effect, 100 is complete control"}, "[5]": {"conditions": "preemergence, 500 g ai/ha, 0 to 100 scale, 0 is no effect and 100 is complete control"}, "[6]": {"conditions": "125 g ai/ha, 0 to 100 scale, 0 is no effect, 100 is complete control"}, "[7]": {"conditions": "Postemergence, 125 g ai/ha, visual rating on 0 to 100 scale (0 no effect, 100 complete control), approx. 10 days"}, "[8]": {"conditions": "Postemergence, 500 g ai/ha, 0 to 100 scale (0 no effect, 100 complete control)"}, "[9]": {"conditions": "Preemergence, 125 g ai/ha, 0 to 100 scale where 0 is no effect and 100 is complete control"}, "[10]": {"conditions": "Preemergence, 500 g ai/ha, visual rating on 0 to 100 scale (0 no effect, 100 complete control)"}, "[11]": {"conditions": "125 g ai/ha, visual rating on 0 to 100 scale (0 no effect, 100 complete control), approx. 10 days"}, "[12]": {"conditions": "500 g ai/ha, 0 to 100 scale (0 no effect, 100 complete control)"}}}
{"smiles": "O=C1NCC(c2cccc(S(F)(F)(F)(F)F)c2)C1C(=O)Nc1cccc(F)c1F", "note": "(stereo not drawn) [Compound 214]", "values": [{"measurement": "Plant response rating, Pigweed", "setting": "pigweed; [3]", "value": 0}, {"measurement": "Plant response rating, Pigweed", "setting": "pigweed; [4]", "value": 0}, {"measurement": "Pigweed plant response rating (0 to 100 scale, 0 is no effect, 100 is complete control)", "setting": "pigweed; Postemergence, 500 g ai/ha", "value": 50}, {"measurement": "Plant response rating, Pigweed", "setting": "pigweed; [5]", "value": 70}, {"measurement": "Plant response rating, Barnyardgrass", "setting": "barnyardgrass [1]; 1000 g ai/ha", "value": 75}, {"measurement": "Plant response rating, Ragweed", "setting": "ragweed; [3]", "value": 0}, {"measurement": "Plant response rating, Ragweed", "setting": "ragweed; [4]", "value": 0}, {"measurement": "Ragweed plant response rating (0 to 100 scale, 0 is no effect, 100 is complete control)", "setting": "ragweed; Postemergence, 500 g ai/ha", "value": 0}, {"measurement": "Plant response rating, Ragweed", "setting": "ragweed; [5]", "value": 0}, {"measurement": "Plant response rating, Corn", "setting": "corn; [6]", "value": 30}, {"measurement": "Corn plant response rating (0 to 100 scale, 0 is no effect, 100 is complete control)", "setting": "corn; 500 g ai/ha", "value": 50}, {"measurement": "Plant response rating, Sedge, Umbrella", "setting": "sedge, umbrella; 1000 g ai/ha", "value": 0}, {"measurement": "Plant response rating, Galium", "setting": "galium; [6]", "value": 40}, {"measurement": "Galium plant response rating (0 to 100 scale, 0 is no effect, 100 is complete control)", "setting": "galium; 500 g ai/ha", "value": 70}, {"measurement": "Plant response rating, Ryegrass, Italian", "setting": "ryegrass, Italian; [3]", "value": 0}, {"measurement": "Plant response rating, Ryegrass, Italian", "setting": "ryegrass, Italian; [4]", "value": 10}, {"measurement": "Ryegrass, Italian plant response rating (0 to 100 scale, 0 is no effect, 100 is complete control)", "setting": "ryegrass, Italian; Postemergence, 500 g ai/ha", "value": 30}, {"measurement": "Plant response rating, Ryegrass, Italian", "setting": "ryegrass, Italian; [5]", "value": 0}, {"measurement": "Plant response rating, Wheat", "setting": "wheat; [6]", "value": 0}, {"measurement": "Wheat plant response rating (0 to 100 scale, 0 is no effect, 100 is complete control)", "setting": "wheat; 500 g ai/ha", "value": 50}, {"measurement": "Plant response rating, Blackgrass", "setting": "blackgrass; [6]", "value": 40}, {"measurement": "Blackgrass plant response rating (0 to 100 scale, 0 is no effect, 100 is complete control)", "setting": "blackgrass; 500 g ai/ha", "value": 70}, {"measurement": "Plant response rating, Ducksalad", "setting": "ducksalad; 1000 g ai/ha", "value": 90}, {"measurement": "Plant response rating, Barnyardgrass", "setting": "barnyardgrass [2]; [3]", "value": 70}, {"measurement": "Plant response rating, Barnyardgrass", "setting": "barnyardgrass [2]; [4]", "value": 60}, {"measurement": "Barnyardgrass plant response rating (0 to 100 scale, 0 is no effect, 100 is complete control)", "setting": "barnyardgrass [2]; Postemergence, 500 g ai/ha", "value": 70}, {"measurement": "Plant response rating, Barnyardgrass", "setting": "barnyardgrass [2]; [5]", "value": 80}, {"measurement": "Plant response rating, Kochia", "setting": "kochia; [3]", "value": 0}, {"measurement": "Plant response rating, Kochia", "setting": "kochia; [4]", "value": 0}, {"measurement": "Kochia plant response rating (0 to 100 scale, 0 is no effect, 100 is complete control)", "setting": "kochia; Postemergence, 500 g ai/ha", "value": 40}, {"measurement": "Plant response rating, Kochia", "setting": "kochia; [5]", "value": 80}, {"measurement": "Plant response rating, Rice", "setting": "rice; 1000 g ai/ha", "value": 20}, {"measurement": "Plant response rating, Foxtail, Giant", "setting": "giant foxtail; [3]", "value": 80}, {"measurement": "Plant response rating, Foxtail, Giant", "setting": "giant foxtail; [4]", "value": 80}, {"measurement": "Foxtail, Giant plant response rating (0 to 100 scale, 0 is no effect, 100 is complete control)", "setting": "giant foxtail; Postemergence, 500 g ai/ha", "value": 90}, {"measurement": "Plant response rating, Foxtail, Giant", "setting": "giant foxtail; [5]", "value": 90}]}
{"smiles": "O=C1NCC(c2ccc(SC(F)(F)F)cc2)C1C(=O)Nc1ccccc1F", "note": "(stereo not drawn) [Compound 321]", "values": [{"measurement": "Plant response rating, Pigweed", "setting": "pigweed; [7]", "value": 0}, {"measurement": "Plant response rating, Pigweed", "setting": "pigweed; [8]", "value": 0}, {"measurement": "Plant response rating, Pigweed", "setting": "pigweed; [9]", "value": 0}, {"measurement": "Pigweed plant response rating", "setting": "pigweed; [10]", "value": 0}, {"measurement": "Plant response rating, Barnyardgrass", "setting": "barnyardgrass [1]; 500 g ai/ha", "value": 20}, {"measurement": "Plant response rating, Ragweed", "setting": "ragweed; [7]", "value": 0}, {"measurement": "Plant response rating, Ragweed", "setting": "ragweed; [8]", "value": 0}, {"measurement": "Plant response rating, Ragweed", "setting": "ragweed; [9]", "value": 0}, {"measurement": "Ragweed plant response rating", "setting": "ragweed; [10]", "value": 0}, {"measurement": "Plant response rating, Corn", "setting": "corn; [11]", "value": 0}, {"measurement": "Plant response rating, Corn", "setting": "corn; [12]", "value": 0}, {"measurement": "Plant response rating, Sedge, Umbrella", "setting": "sedge, umbrella; 500 g ai/ha", "value": 0}, {"measurement": "Plant response rating, Galium", "setting": "galium; [11]", "value": 0}, {"measurement": "Plant response rating, Galium", "setting": "galium; [12]", "value": 0}, {"measurement": "Plant response rating, Ryegrass, Italian", "setting": "ryegrass, Italian; [7]", "value": 0}, {"measurement": "Plant response rating, Ryegrass, Italian", "setting": "ryegrass, Italian; [8]", "value": 0}, {"measurement": "Plant response rating, Ryegrass, Italian", "setting": "ryegrass, Italian; [9]", "value": 0}, {"measurement": "Ryegrass, Italian plant response rating", "setting": "ryegrass, Italian; [10]", "value": 0}, {"measurement": "Plant response rating, Wheat", "setting": "wheat; [11]", "value": 0}, {"measurement": "Plant response rating, Wheat", "setting": "wheat; [12]", "value": 0}, {"measurement": "Plant response rating, Blackgrass", "setting": "blackgrass; [11]", "value": 0}, {"measurement": "Plant response rating, Blackgrass", "setting": "blackgrass; [12]", "value": 0}, {"measurement": "Plant response rating, Ducksalad", "setting": "ducksalad; 500 g ai/ha", "value": 40}, {"measurement": "Plant response rating, Barnyardgrass", "setting": "barnyardgrass [2]; [7]", "value": 0}, {"measurement": "Plant response rating, Barnyardgrass", "setting": "barnyardgrass [2]; [8]", "value": 50}, {"measurement": "Plant response rating, Barnyardgrass", "setting": "barnyardgrass [2]; [9]", "value": 0}, {"measurement": "Barnyardgrass plant response rating", "setting": "barnyardgrass [2]; [10]", "value": 30}, {"measurement": "Plant response rating, Kochia", "setting": "kochia; [7]", "value": 0}, {"measurement": "Plant response rating, Kochia", "setting": "kochia; [8]", "value": 0}, {"measurement": "Plant response rating, Kochia", "setting": "kochia; [9]", "value": 0}, {"measurement": "Kochia plant response rating", "setting": "kochia; [10]", "value": 0}, {"measurement": "Plant response rating, Rice", "setting": "rice; 500 g ai/ha", "value": 15}, {"measurement": "Plant response rating, Foxtail, Giant", "setting": "giant foxtail; [7]", "value": 0}, {"measurement": "Plant response rating, Foxtail, Giant", "setting": "giant foxtail; [8]", "value": 50}, {"measurement": "Plant response rating, Foxtail, Giant", "setting": "giant foxtail; [9]", "value": 0}, {"measurement": "Foxtail, Giant plant response rating", "setting": "giant foxtail; [10]", "value": 50}]}
